Laboratory results: patent US20140309210A1, “INDAZOLE COMPOUNDS, COMPOSITIONS AND METHODS OF USE THEREOF” (Genentech, Inc., priority 2011, published 2014)

Target: T1, purified ITK (Invitrogen PV3875) (Homo sapiens, UniProt Q08881)
T1 construct: purchased Invitrogen PV3875
T1 sequence (Q08881 1-620): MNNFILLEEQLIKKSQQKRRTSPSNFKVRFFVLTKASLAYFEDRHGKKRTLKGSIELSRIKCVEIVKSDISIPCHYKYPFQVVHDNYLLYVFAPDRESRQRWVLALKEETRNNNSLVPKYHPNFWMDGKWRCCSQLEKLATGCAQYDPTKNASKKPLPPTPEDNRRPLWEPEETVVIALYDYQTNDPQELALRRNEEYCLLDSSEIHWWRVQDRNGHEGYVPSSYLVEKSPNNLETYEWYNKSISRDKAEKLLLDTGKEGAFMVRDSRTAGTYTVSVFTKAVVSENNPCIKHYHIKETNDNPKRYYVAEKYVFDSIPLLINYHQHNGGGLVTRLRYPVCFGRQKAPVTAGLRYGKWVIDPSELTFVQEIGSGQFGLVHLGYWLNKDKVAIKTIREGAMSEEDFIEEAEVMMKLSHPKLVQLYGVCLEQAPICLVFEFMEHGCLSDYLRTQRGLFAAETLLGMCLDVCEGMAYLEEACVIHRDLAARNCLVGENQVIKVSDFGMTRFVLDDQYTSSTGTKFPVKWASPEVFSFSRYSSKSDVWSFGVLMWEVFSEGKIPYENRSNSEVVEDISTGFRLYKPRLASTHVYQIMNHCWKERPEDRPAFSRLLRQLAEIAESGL
Assay: ITK peptide phosphorylation assay (Caliper LabChip or LCMS)
Type: biochemical
Details: Table 2, Examples 1-140, class symbols
Protocol: The ability of purified ITK (Invitrogen PV3875) to catalyze peptide phosphorylation is monitored using a Caliper LabChip 3000 microfluidic unit (Caliper assay) or by liquid chromatography-mass spectrometry (LCMS) using a Waters Acquity system (LCMS assay). […] Reactions are quenched by the addition of 2,2′,2″,2′″-(ethane-1,2-diyldinitrilo)tetraacetic acid (50 mM final). Non-phosphorylated substrate and phosphorylated product peptides are separated and quantified using a Caliper LabChip 3000 instrument. […] Reactions are quenched by the addition of trichloroacetic acid (5% v/v final). Non-phosphorylated substrate and phosphorylated product peptides are separated by ultra performance LC and detected by a coupled triple quadrupole MS device applying multiple reaction monitoring (MRM) for quantification. The area of the MRM-extracted mass signal is used to assess the inhibition by test compounds. Equilibrium dissociation constant (Ki) values for ITK inhibitors are calculated from plots of activity vs. inhibitor concentration using Morrison's quadratic equation that accounts for the potential of tight binding, and by also applying the conversion factor that accounts for competitive inhibition and the concentration of ATP used in the assay relative to its apparent Michaelis constant (Km,app).

| SMILES | Ki |
| --- | --- |
| O=C(Nc1cnn(Cc2cc(F)ccc2F)c1)c1n[nH]c2ccccc12 [Example 69, N-(1-(2,5-difluorobenzyl)-1H-pyrazol-4-yl)-1H-indazole-3-carboxamide] | 1 to 100 nM |
| COc1cc(Cn2cc(NC(=O)c3n[nH]c4ccccc34)cn2)cc(OC)c1 [Example 70, N-(1-(3,5-dimethoxybenzyl)-1H-pyrazol-4-yl)-1H-indazole-3-carboxamide] | 1 to 100 nM |
| O=C(Nc1cnn(Cc2ccc(F)cc2F)c1)c1n[nH]c2ccccc12 [Example 71, N-(1-(2,4-difluorobenzyl)-1H-pyrazol-4-yl)-1H-indazole-3-carboxamide] | 1 to 100 nM |
| O=C(Nc1cnn(Cc2ccc(OC(F)(F)F)cc2)c1)c1n[nH]c2ccccc12 [Example 72, N-(1-(4-(trifluoromethoxy)benzyl)-1H-pyrazol-4-yl)-1H-indazole-3-carboxamide] | > 100 nM |
| O=C(Nc1cnn(Cc2ccc(Cl)cc2Cl)c1)c1n[nH]c2ccccc12 [Example 73, N-(1-(2,4-dichlorobenzyl)-1H-pyrazol-4-yl)-1H-indazole-3-carboxamide] | > 100 nM |
| O=C(Nc1cnn(CCCN2CCCC(O)C2)c1)c1n[nH]c2ccccc12 (centres unmarked) [Example 74, N-(1-(3-(3-Hydroxypiperidin-1-yl)propyl)-1H-pyrazol-4-yl)-1H-indazole-3-carboxamide] | > 100 nM |
| O=C(Nc1cnn(CCN2CCCC(O)C2)c1)c1n[nH]c2ccccc12 (centres unmarked) [Example 75, N-(1-(2-(3-Hydroxypiperidin-1-yl)ethyl)-1H-pyrazol-4-yl)-1H-indazole-3-carboxamide] | > 100 nM |
| O=C(Nc1cnn(CCCCN2CCCC(O)C2)c1)c1n[nH]c2ccccc12 (centres unmarked) [Example 76, N-(1-(4-(3-Hydroxypiperidin-1-yl)butyl)-1H-pyrazol-4-yl)-1H-indazole-3-carboxamide] | > 100 nM |
| CC(C)(c1cccc(C#N)c1)n1cc(NC(=O)c2n[nH]c3ccccc23)cn1 [Example 77, N-(1-(2-(3-Cyanophenyl)propan-2-yl)-1H-pyrazol-4-yl)-1H-indazole-3-carboxamide] | > 100 nM |
| CC(C)(O)CNCc1cccc(Cn2cc(NC(=O)c3n[nH]c4ccccc34)cn2)c1 [Example 90, N-(1-(3-((2-hydroxy-2-methylpropylamino)methyl)benzyl)-1H-pyrazol-4-yl)-1H-indazole-3-carboxamide] | 1 to 100 nM |
| O=C(Nc1cnn(Cc2cccc(CN3CCC3)c2)c1)c1n[nH]c2ccccc12 [Example 91, N-(1-(3-(azetidin-1-ylmethyl)benzyl)-1H-pyrazol-4-yl)-1H-indazole-3-carboxamide] | 1 to 100 nM |
| O=C(Nc1cnn(Cc2cccc(CNCC(F)F)c2)c1)c1n[nH]c2ccccc12 [Example 92, N-(1-(3-((2,2-difluoroethylamino)methyl)benzyl)-1H-pyrazol-4-yl)-1H-indazole-3-carboxamide] | 1 to 100 nM |
| CC(O)CNCc1cccc(Cn2cc(NC(=O)c3n[nH]c4ccccc34)cn2)c1 (centres unmarked) [Example 93, N-(1-(3-((2-hydroxypropylamino)methyl)benzyl)-1H-pyrazol-4-yl)-1H-indazole-3-carboxamide] | 1 to 100 nM |
| O=C(Nc1cnn(Cc2cccc(CNC3CCC3)c2)c1)c1n[nH]c2ccccc12 [Example 94, N-(1-(3-((cyclobutylamino)methyl)benzyl)-1H-pyrazol-4-yl)-1H-indazole-3-carboxamide] | 1 to 100 nM |
| O=C(Nc1cnn(Cc2cccc(CNCC3CC3)c2)c1)c1n[nH]c2ccccc12 [Example 95, N-(1-(3-((cyclopropylmethylamino)methyl)benzyl)-1H-pyrazol-4-yl)-1H-indazole-3-carboxamide] | 1 to 100 nM |
| O=C(Nc1cnn(Cc2cccc(CNCCO)c2)c1)c1n[nH]c2ccccc12 [Example 96, N-(1-(3-((2-hydroxyethylamino)methyl)benzyl)-1H-pyrazol-4-yl)-1H-indazole-3-carboxamide] | 1 to 100 nM |
| CCCNCc1cccc(Cn2cc(NC(=O)c3n[nH]c4ccccc34)cn2)c1 [Example 97, N-(1-(3-((propylamino)methyl)benzyl)-1H-pyrazol-4-yl)-1H-indazole-3-carboxamide] | 1 to 100 nM |
| O=C(Nc1cnn(Cc2cccc(CNC3CC3)c2)c1)c1n[nH]c2ccccc12 [Example 98, N-(1-(3-((cyclopropylamino)methyl)benzyl)-1H-pyrazol-4-yl)-1H-indazole-3-carboxamide] | 1 to 100 nM |
| CCNCc1cccc(Cn2cc(NC(=O)c3n[nH]c4ccccc34)cn2)c1 [Example 99, N-(1-(3-((ethylamino)methyl)benzyl)-1H-pyrazol-4-yl)-1H-indazole-3-carboxamide] | 1 to 100 nM |
| CN(C)CCNCc1cccc(Cn2cc(NC(=O)c3n[nH]c4ccccc34)cn2)c1 [Example 102, N-(1-(3-((2-(dimethylamino)ethylamino)methyl)benzyl)-1H-pyrazol-4-yl)-1H-indazole-3-carboxamide] | 1 to 100 nM |
| O=C(Nc1cnn(Cc2ccc(CN3CCC3)cc2)c1)c1n[nH]c2ccccc12 [Example 103, N-(1-(4-(azetidin-1-ylmethyl)benzyl)-1H-pyrazol-4-yl)-1H-indazole-3-carboxamide] | 1 to 100 nM |

More lines, now with the values ahead:

| Ki | SMILES |
| --- | --- |
| 1 to 100 nM | COc1cccc(Cn2cc(NC(=O)c3n[nH]c4ccccc34)cn2)c1 [Example 67, N-(1-(3-methoxybenzyl)-1H-pyrazol-4-yl)-1H-indazole-3-carboxamide] |
| 1 to 100 nM | O=C(Nc1cnn(Cc2ccc(F)c(F)c2)c1)c1n[nH]c2ccccc12 [Example 68, N-(1-(3,4-difluorobenzyl)-1H-pyrazol-4-yl)-1H-indazole-3-carboxamide] |
| > 100 nM | N#Cc1cccc(Cn2cc(NC(=O)c3n[nH]c4ccc(-c5ccccc5)cc34)cn2)c1 [Example 79, N-(1-(3-Cyanobenzyl)-1H-pyrazol-4-yl)-5-phenyl-1H-indazole-3-carboxamide] |
| 1 to 100 nM | N#Cc1cccc(Cn2cc(NC(=O)c3n[nH]c4ccc(-c5cc[nH]n5)cc34)cn2)c1 [Example 80, N-(1-(3-Cyanobenzyl)-1H-pyrazol-4-yl)-5-(1H-pyrazol-3-yl)-1H-indazole-3-carboxamide] |
| 1 to 100 nM | N#Cc1cccc(Cn2cc(NC(=O)c3n[nH]c4ccc(-c5cn[nH]c5)cc34)cn2)c1 [Example 81, N-(1-(3-Cyanobenzyl)-1H-pyrazol-4-yl)-5-(1H-pyrazol-4-yl)-1H-indazole-3-carboxamide] |
| 1 to 100 nM | N#Cc1cccc(Cn2cc(NC(=O)c3n[nH]c4ccc(CCO)cc34)cn2)c1 [Example 82] |
| 1 to 100 nM | CCn1cc(NC(=O)c2n[nH]c3cc(-c4cn[nH]c4)ccc23)cn1 [Example 83, N-(1-ethyl-1H-pyrazol-4-yl)-6-(1H-pyrazol-4-yl)-1H-indazole-3-carboxamide] |
| 1 to 100 nM | N#Cc1cncc(-c2ccc3c(C(=O)Nc4cnn(Cc5ccccc5)c4)n[nH]c3c2)c1 [Example 84, N-(1-benzyl-1H-pyrazol-4-yl)-6-(5-cyanopyridin-3-yl)-1H-indazole-3-carboxamide] |
| 1 to 100 nM | COc1cncc(-c2ccc3c(C(=O)Nc4cnn(Cc5ccccc5)c4)n[nH]c3c2)c1 [Example 85, N-(1-benzyl-1H-pyrazol-4-yl)-6-(5-methoxypyridin-3-yl)-1H-indazole-3-carboxamide] |
| 1 to 100 nM | N#Cc1cccc(Cn2cc(NC(=O)c3n[nH]c4cc(N5CCCC5)ccc34)cn2)c1 [Example 86, N-(1-(3-cyanobenzyl)-1H-pyrazol-4-yl)-6-(pyrrolidin-1-yl)-1H-indazole-3-carboxamide] |
| 1 to 100 nM | Cn1cnc(-c2ccc3c(C(=O)Nc4cnn(Cc5ccccc5)c4)n[nH]c3c2)c1 [Example 87, N-(1-benzyl-1H-pyrazol-4-yl)-6-(1-methyl-1H-imidazol-4-yl)-1H-indazole-3-carboxamide] |
| 1 to 100 nM | N#Cc1cccc(Cn2cc(NC(=O)c3n[nH]c4cc(N5CCC(O)C5)ccc34)cn2)c1 (centres unmarked) [Example 88, N-(1-(3-cyanobenzyl)-1H-pyrazol-4-yl)-6-(3-hydroxypyrrolidin-1-yl)-1H-indazole-3-carboxamide] |
| 1 to 100 nM | CN(CCC#N)Cc1cccc(Cn2cc(NC(=O)c3n[nH]c4ccccc34)cn2)c1 [Example 100, N-(1-(3-(((2-cyanoethyl)(methyl)amino)methyl)benzyl)-1H-pyrazol-4-yl)-1H-indazole-3-carboxamide] |
| 1 to 100 nM | CNCc1cccc(Cn2cc(NC(=O)c3n[nH]c4ccccc34)cn2)c1 [Example 101, N-(1-(3-((methylamino)methyl)benzyl)-1H-pyrazol-4-yl)-1H-indazole-3-carboxamide] |

Same assay, conditions: Table 3, specific values for certain examples

| SMILES | Ki |
| --- | --- |
| O=C(Nc1cnn(CCN2CCCC(O)C2)c1)c1n[nH]c2ccccc12 (centres unmarked) [Example 75, N-(1-(2-(3-Hydroxypiperidin-1-yl)ethyl)-1H-pyrazol-4-yl)-1H-indazole-3-carboxamide] | 428 nM |
| CC(C)(c1cccc(C#N)c1)n1cc(NC(=O)c2n[nH]c3ccccc23)cn1 [Example 77, N-(1-(2-(3-Cyanophenyl)propan-2-yl)-1H-pyrazol-4-yl)-1H-indazole-3-carboxamide] | 307 nM |
| O=C(Nc1cnn(Cc2cccc(CNCCO)c2)c1)c1n[nH]c2ccccc12 [Example 96, N-(1-(3-((2-hydroxyethylamino)methyl)benzyl)-1H-pyrazol-4-yl)-1H-indazole-3-carboxamide] | 38.7 nM |
